Measured values as given in patent US20060276549A1, “Combination and use of drugs” (priority 2005, published 2006).
Like-named read-outs stand apart in the source and are kept apart here.

Legend:
Zucker fa/fa rats = test: Rat model of snacking behavior with isobologram analysis; format: in vivo; conditions: for ED50: Rattus norvegicus, read-out: ED50 for reduction of snack intake (50% reduction in Snack Consumption); for effect on snack intake / snacking: oral dosing before snack
Procedure: Non-fasted male Zucker fa/fa −/− rats (450 gr) were habituated for 3 weeks to a twice weekly, 3 hour exposure to 60% fat diet (RDI #12492) achieving an average snack intake of 12 to 16 g. Compounds or vehicle (1% Tween 80/water) were dosed orally, 1 ml/kg, n=12-15/group, 1 hour before exclusive presentation of the snack. Snack intake and subsequent 21-hour intake of standard chow (Purina 5008) were measured. […] It is unclear from these individual studies, however, if combination treatment would result in an even greater effect on snacking behavior as reflected in a shift of the ED50 to lower doses. Therefore, an isobologram analysis was performed as described in Example 6
Dose response curves for sibutramine hydrochloride monohydrate and rimonabant hydrochloride were generated in the rat snacking model and ED50 and 95% confidence limits derived from the linear part of the curve by linear regression. Two combination studies in snacking (n=12 rats/group) were performed; the first with a fixed dose of sibutramine HCl (5 mg base/kg) co-administered with rimonabant at 1, 2.5, and 5 mg base/kg, and the second with rimonabant fixed at 4 mg base/kg with sibutramine at 2, 4, and 8 mg base/kg, plus vehicle control. ED50 values were derived from the combination studies and plotted on the isobologram. The ED50 is the dose where there is a 50% reduction in Snack Consumption. […] The rimonabant hydrochloride ED50 is 8 mg/kg.

[1] = system: Diet-induced Obese (DIO) Mice; test: Prevention of body weight re-gain in DIO mice; format: in vivo, C57BL/6J mice; conditions: DIO mice re-introduced to high fat food; qd dosing, day 0-7; vs HF, LF, to HF control
Procedure: C57BL/6J mice (age 5-6 weeks) were obtained from Jackson Labs (Bar Harbor, Me.) and housed in groups of 5 under conditions of 12 hours lights on, 12 hours lights off (on at 04:00 h), with food and water available ad libitum. At the beginning of the study, mice were administered a purified low fat diet (D12450Bi, 10 kcal % fat, 3.8 kcal/g) or a high fat content diet (D12492i, 60 kcal % fat, 5.2 kcal/g), both obtained from Research Diets Inc. (New Brunswick, N.J.) for approximately 16 weeks. The fat content of these diets was a mixture of lard and soybean oil. Groups of mice that had been on the high fat diet were switched back to the low fat diet for approximately 4 weeks prior to their being re-introduced to either the high fat food (weight re-gain) or maintained on low fat food. Approximately 5 days prior to the onset of dosing study (Day -5), mice were acclimated to handling and conditioned to oral gavage and daily vehicle administration by daily oral treatment at 15:00 h with Tween-80 (Sigma Chemical, St. Louis, Mo.) 1% vehicle in water (VN). All doses were given in 4 ml/kg body weight volume of vehicle. At the start of drug treatment, mice were dosed qd at 15:00 hr each day for 7 days, and body weights and food intake were evaluated.

[2] = system: Diet-induced Obese (DIO) Mice; test: Body weight loss in diet-induced obese (DIO) mice; format: in vivo, C57BL/6J mice; conditions: for body weight loss at day 14: p.o. q.d., sibutramine 15 mg/kg, rimonabant 3 mg/kg base
Procedure: C57BL/6J mice (age 5-6 weeks) were obtained from Jackson Labs (Bar Harbor, Me.) and housed in groups of 5 under conditions of 12 hours lights on, 12 hours lights off (on at 04:00 h), with food and water available ad libitum. At the beginning of the study, mice were administered a purified low fat diet (D12450Bi, 10 kcal % fat, 3.8 kcal/g) or a high fat content diet (D12492i, 60 kcal % fat, 5.2 kcal/g), both obtained from Research Diets Inc. (New Brunswick, N.J.) for approximately 16 weeks. The fat content of these diets was a mixture of lard and soybean oil.
(§1) Mice were individually housed for study two weeks prior to start of treatment. Mice were weighed one week later (experiment day -7), and conditioned to oral gavage and daily vehicle administration by daily oral treatment at 15:00 h with Tween-80 (Sigma Chemical, St. Louis, Mo.) 1% vehicle in water (V/V). All doses were given in 4 ml/kg body weight volume of vehicle. All compound doses are expressed as base equivalent weights per unit body weight. Mice were reweighed on day -1 to ensure that weight loss plateaued and was not progressive. Mice were stratified into groups of equal mean body weight, with n=20 mice per group. On days 0 to 28, mice were dosed by oral gavage at 15:00 h (q.d.). Sibutramine hydrochloride monohydrate and rimonabant hydrochloride were administered p.o. by gavage for 27 to 28 days at 15:00 h, at doses of 15 mg/kg and 3 mg/kg base, respectively, once a day (q.d.). Compounds were formulated in Tween-80 vehicle. For combination treatment, the individual compound formulations were mixed together immediately prior to dosing, and given as a single gavage. Food and body weights were determined on days 0 prior to treatment, and on days 1, 4, 7, 11, 14, 18, 21, 25, 27 and 28. Ten mice per group were fasted overnight on day 27. […] Plasma was analysed for insulin, leptin, free fatty acids, triglycerides, total cholesterol, HDLc and LDLc. […]

[3] = cited from earlier work
DIO mice = test: DEXA analysis of body composition in DIO mice; format: in vivo; conditions: Day 28
Procedure: as §1

SMILES | ED50 (Zucker fa/fa rats; Zucker fa/fa rats, oral, 1 hour before 3 hour 60% fat snack) | effect on snack intake / snacking (Zucker fa/fa rats) | body weight re-gain [1] | further weight loss compared with sibutramine treated animals ([2]; Day 14-28) | body weight loss at day 14 [2] | ED50 (Zucker fa/fa rats; po) | food intake ([3]; literature studies, initially) | reduction of body weight ([3]; over a 6 month or a 1 year period) | lean mass (DEXA) vs. DIO controls (DIO mice)
Cc1c(C(=O)NN2CCCCC2)nn(-c2ccc(Cl)cc2Cl)c1-c1ccc(Cl)cc1 [rimonabant, 1-H-pyrazole-3-carboxamide, 5-(4-chlorophenyl)-1-(2,4-dichlorophenyl)-4-methyl-N-1-piperidinyl] | 8 mg/kg | effective in reducing snack intake | prevent body weight re-gain | approximately 4% | 15% |  |  |  | 
CC(C)CC(N(C)C)C1(c2ccc(Cl)cc2)CCC1 (stereo not drawn) [sibutramine, N,N-dimethyl-1-[1-(4-chlorophenyl)cyclobutyl]-3-methylbutylamine] |  | effective in reducing snack intake | prevent body weight re-gain |  | 14% | 24 mg/kg | potently inhibits food intake | about 10% | statistical decreases in lean mass
